{
  "source": "patent US5846986A",
  "about": "“Therapeutic phenoxyalkylazoles and phenoxyalkylazines” (Sanofi, priority 1997, dated 1998)",
  "test_system": "panel of 10 human rhinopicornavirus serotypes HRV-3, -4, -5, -9, -16, -18, -38, -66, -75 and -67 (panel B)",
  "test": "automated TCID-50 assay, HeLa cells, panel B of 10 human rhinopicornavirus serotypes",
  "assay_type": "cell-based",
  "conditions": "minimum concentration required to inhibit 50% of the tested serotypes, number of serotypes tested in column N, 3 days, 33° C.",
  "procedure": "The MIC values were determined by an automated tissue culture infectious dose 50% (TCID-50) assay. HeLa cells in monoloyers in 96-well cluster plates were infected with a dilution of picornavirus which had been shown empirically to produce 80% to 100% cytopathic effect (CPE) in 3 days in the absence of drug. The compound to be tested was serially diluted through 10, 2-fold cycles and added to the infected cells. After a 3 day incubation at 33° C. and 2.5% carbon dioxide, the cells were fixed with a 5% solution of glutaraldehyde followed by staining with a 0.25% solution of crystal violet in water. […]\nIn the above test procedures, representative compounds of formula I were tested against some the serotypes from either a panel of fifteen human rhinopicornavirus (HRV) serotypes, (noted in the table as panel T) namely, HRV-2, -14, -1A, -1B, -6, -21, -22, -15, -25, -30, -50, -67, -89, -86 and -41 or against some of the serotypes from a panel of 10 human rhinopicornavirus serotypes namely HRV-3, -4, -5, -9, -16, -18, -38, -66, -75 and -67, (noted in the table as panel B) and the MIC value, expressed in micrograms per milliliter […], for each rhinopicornavirus serotype was determined for each picornavirus, example le is given as an example of the data. […]",
  "data": [
    {"substance": "3-Methyl-5-[3-[4-(2-methyl-tetrazol-5-yl)-2,6-dimethylphenoxy]-propyl]-thiazole [Example 11]", "values": [
      {"measurement": "Mic50", "result": 0.148, "unit": "µg/mL"}
    ]}
  ]
}
